The values below come from paper PMC8125615 (Molecules, 2021).

For experiment [1], the target named is SARS CoV-2 M^pro (Severe acute respiratory syndrome coronavirus 2, UniProt P0DTD1). Put plainly: In vitro enzyme inhibition assay (SARS-CoV-2 main protease assay kit, fluorescence). The format is biochemical. How it is done: GC376 was used as a reference standard inhibitor.
Briefly, 10 µL of test compounds of different concentrations were added into a 96-well plate followed by pipetting 30 µL of the diluted protease 15 µg/mL. The mixtures were incubated for 30 min at room temperature, and then 10 µL of the substrate was dissolved in the reaction buffer and added to reach a 50-µL final volume and 40-µM final concentration. The reaction mixture was then incubated for 4 h at 20 °C followed by measuring the produced fluorescence using a TECAN spark microplate-reading fluorimeter.

Experiment [2] relates to SARS CoV M^pro. As to conditions: cited from earlier work.
Where [3] appears, read: SARS CoV-2 M^pro, fluorescence kit assay, GC376 as reference standard, read-out: IC50.

Read-outs that look alike come from different tables or passages of the source.

Broadly, the IC50 is the concentration that gives 50% inhibition. For `C[C@H]1[C@H](C)CC[C@]2(C(=O)O)CC[C@]3(C)C(=CC[C@@H]4[C@@]5(C)CC[C@H](O)C(C)(C)[C@@H]5CC[C@]43C)[C@H]12` [ursolic acid], the IC50 in experiment [1] (setting [3]) was 12.6 ± 0.28 µM.

For `CC1(C)CC[C@]2(C(=O)O)CC[C@]3(C)C(=CC[C@@H]4[C@@]5(C)C[C@@H](O)[C@H](O)C(C)(C)[C@@H]5CC[C@]43C)[C@@H]2C1` [maslinic acid], the IC50 in experiment [1] (setting [3]) stood at 3.22 ± 0.26 µM.

Take `C=C(C)[C@@H]1CC[C@]2(C(=O)O)CC[C@]3(C)[C@H](CC[C@@H]4[C@@]5(C)CC[C@H](O)C(C)(C)[C@@H]5CC[C@]43C)[C@@H]12` [betulinic acid]: the figures for the IC50 in experiment [1] and in experiment [2] were 14.5 ± 1.3 µM and 10 µM, respectively.

As for `C=C(C)[C@@H]1CC[C@]2(CO)CC[C@]3(C)[C@H](CC[C@@H]4[C@@]5(C)CC[C@H](O)C(C)(C)[C@@H]5CC[C@]43C)[C@@H]12` [betulin], the IC50 in experiment [1] (setting [3]) was determined as 89.7 µM.
